Laboratory results reported in publication PMC5302928, “[^64Cu]XYIMSR-06: A dual-motif CAIX ligand for PET imaging of clear cell renal cell carcinoma” (Oncotarget, 2016).
“And” between values parts separate entries of the source, which are not always exact repeats. Identical values can stand only once.

Test system: CAIX-expressing SK-RC-52 ccRCC tumor xenografts
Experiment: Biodistribution of [Al18F]XYIMSR-04 in mice bearing SK-RC-52 xenografts
Type: in vivo
Conditions: 1 h
Protocol: The resulting Mice bearing SK-RC-52 xenografts within the solution was heated at 110 °C for 30 min. 0.6 mg of lower left flank were injected intravenously with 740 [Al19F]XYIMSR-04 was obtained as white crystal, after kBq (20 μCi) of [Al18F]XYIMSR-04 in 200 μL of PBS.
HPLC purification. Yield is 61 %. HPLC condition: At specific 1 hour time point mentioned in the paper, column Phenomenex, Luna 10 x 250 mm, 10 µ. 20/80/ mice (n = 5) were sacrificed by cervical dislocation and TFA MeCN/H O/TFA, flow 4 mL/min. Product was the blood was immediately collected by cardiac puncture. […]
eluded at 35.5 min. MS, calculated for C H AlFN N Heart, lungs, pancreas, spleen, fat, brain, muscle, small […]
aO S [M+Na] : 1426.4759; Found: 1426.4777. intestines, liver, bone, stomach, kidney, urinary bladder, […]
and tumor were collected. Each organ was weighed and Radiosynthesis the tissue radioactivity was measured with an automated gamma counter (1282 Compugamma CS, Pharmacia/
For convenience, Na18F in saline purchased from LKBNuclear, Inc., Mt. Waverly, Vic. Australia). The PETNET (Hackensack, NJ) was directly applied with to percentage of injected dose per gram of tissue (% ID/g) the synthesis with a slightly modified protocol (2). Due to was calculated by comparison with samples of a standard […]
reaction condition. corrected for radioactive decay.
Radiosynthesis of [Al18F]XYIMSR-04. 400μg of Data were expressed as mean ± standard deviation XYIMSR-04 in 200 μL water/Ethanol 1:1 was added to (SD). Prism software (GraphPAD, San Diego, California) 1 mL of Na18F in 0.9% saline containing 4.6-14.0 mCi was used to determine statistical significance. Statistical activity. To this mixture, 20 μL of 2 mM AlCl3/NaOAc significance was calculated using a paired t test. P-values solution and 200 μL of ethanol were added. The reaction < 0.0001 were considered significant. was kept at 105 °C for 20 min, then diluted to 2.0 mL The biodistribution data at 1 h is shown below. with water and loaded onto a preparative HPLC column The tumor uptake is 14.40%ID/g, with tumor-to –blood, for purification. Retention times for the radiolabeled -muscle and –kidney of 22.1, 9.74 and 0.28. compound, [Al18F]XYIMSR-04, and starting material, XYIMSR-04, were optimized to the point of baseline Imaging separation, with [Al18F]XYIMSR-04 eluting first.
[Al18F]XYIMSR-04 was obtained a radiochemical yield Mice harboring subcutaneous SK-RC-52 tumors of 4.3% (n=3) in specific radioactivity of 57-92 Ci/mmol with the lower left flank were injected with 7.4 MBq (200 in 1 hour. HPLC conditions: Phenomenex, Luna 10 x 250 μCi) of [Al18F]XYIMSR-04 in 250 µL of PBS (pH = 7.0) mm, 10μ. 20/80/0.1 MeCN/H2O/TFA, flow 4 mL/min. intravenously (tail vein). Anesthesia was then induced Product eluted at 35.5 min, while starting material eluted with 3% isofluorane and maintained at 2% isoflurane. […]
(also on this page, place not known: www.impactjournals.com/oncotarget/ Oncotarget, Supplementary Materials 2016 ([Al19F]XYIMSR-04). AlCl 3 2O/TFA, 57H79AlFN15N aO20S2 +: Na 18F [Al 18F]XYIMSR-04. XYIMSR-04 Na 18F AlCl 3/NaOAc [Al 18F]XYIMSR-04, [Al 18F]XYIMSR-04 MeCN/H 2O/TFA, [Al 19F]XYIMSR-04 [Al 18F]XYIMSR-04) […]

Question: `CC(CCC(=O)N[C@@H](CC(=O)N[C@@H](CC(=O)N[C@@H](CCCCn1cc(CCCC(=O)Nc2nnc(S(N)(=O)=O)s2)nn1)C(=O)NCCOCCOCCNC(=O)CN1CCN2CCN(CC1)CC(=O)[O][Al]([18F])[O]C(=O)C2)C(=O)O)C(=O)O)(c1ccc(O)cc1)c1ccc(O)cc1` [[Al^18F]XYIMSR-04] was tested. Which Bladder uptake did it give?
Answer: 20.12 ± 12.51 %ID/g

Question: What about the Blood uptake of the same compound?
Answer: 0.65 ± 0.11 %ID/g

Question: And the Bone uptake?
Answer: 1.91 ± 1.39 %ID/g

Question: And the Brain uptake?
Answer: 0.66 ± 0.04 %ID/g

Question: What about the Fat uptake of the same compound?
Answer: 1.54 ± 0.25 %ID/g

Question: And the Heart uptake?
Answer: 5.03 ± 0.51 %ID/g

Question: What about the “Kidney (kid) uptake” value of the same compound?
Answer: 50.84 ± 2.65 %ID/g

Question: What about the Liver uptake of the same compound?
Answer: 5.55 ± 0.91 %ID/g

Question: What about the Lung uptake of the same compound?
Answer: 34.07 ± 5.85 %ID/g

Question: What about the “Muscle (mm) uptake” value of the same compound?
Answer: 1.74 ± 0.58 %ID/g

Question: What about the Pancreas uptake of the same compound?
Answer: 3.47 ± 0.16 %ID/g

Question: What about the Sm. intestine uptake of the same compound?
Answer: 9.59 ± 1.04 %ID/g

Question: And the Spleen uptake?
Answer: 0.54 ± 0.18 %ID/g

Question: What about the Stomach uptake of the same compound?
Answer: 21.62 ± 1.85 %ID/g

Question: And the Tumor uptake?
Answer: 14.4 ± 2.2 %ID/g

Question: What about the “Tumor/kid (kidney) ratio” value of the same compound?
Answer: 0.28 ± 0.03

Question: What about the “Tumor/mm (muscle) ratio” value of the same compound?
Answer: 9.7 ± 2.9

Question: What about the Tumor/Blood ratio (listed as [Al18F]XYIMSR-04) of the same compound?
Answer: 22.1 and 22.1 ± 1.5

Question: What about the “Tumor/kid (kidney) ratio” value (listed as [Al18F]XYIMSR-04) of the same compound?
Answer: 0.28

Question: What about the “Tumor/mm (muscle) ratio” value (listed as [Al18F]XYIMSR-04) of the same compound?
Answer: 9.74
